Consider 27 compounds from patent US20230102554A1 (GB002, INC., priority 2019, published 2023).

Assay [1] has as its target T1, Human PDGFRα, cytoplasmic domain (GST-PDGFRα) (Homo sapiens, UniProt P16234).
T1 construct: made in house
The experiment in a line: Human PDGFRα biochemical inhibition assay (off-chip Mobility Shift Assay).

Assay [2] addresses T2, Human PDGFRβ, cytoplasmic domain (GST-PDGFRβ) (Homo sapiens, UniProt P09619).
T2 construct: made in house
The experiment in a line: Human PDGFRβ biochemical inhibition assay (off-chip Mobility Shift Assay). In outline: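 GST-tagged cytoplasmic domain (aa 557-1106) from baculovirus was incubated 1 h at room temperature with compound, CSKtide, ATP at Km and Mg²⁺ in HEPES buffer, pH 7.5. Phosphorylated and unphosphorylated peptide were separated by off-chip mobility shift, and the product ratio P/(P+S) gave percent inhibition.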

The structures appear in SMILES notation.

T2 sequence (P09619 with tags, fused parts or gaps): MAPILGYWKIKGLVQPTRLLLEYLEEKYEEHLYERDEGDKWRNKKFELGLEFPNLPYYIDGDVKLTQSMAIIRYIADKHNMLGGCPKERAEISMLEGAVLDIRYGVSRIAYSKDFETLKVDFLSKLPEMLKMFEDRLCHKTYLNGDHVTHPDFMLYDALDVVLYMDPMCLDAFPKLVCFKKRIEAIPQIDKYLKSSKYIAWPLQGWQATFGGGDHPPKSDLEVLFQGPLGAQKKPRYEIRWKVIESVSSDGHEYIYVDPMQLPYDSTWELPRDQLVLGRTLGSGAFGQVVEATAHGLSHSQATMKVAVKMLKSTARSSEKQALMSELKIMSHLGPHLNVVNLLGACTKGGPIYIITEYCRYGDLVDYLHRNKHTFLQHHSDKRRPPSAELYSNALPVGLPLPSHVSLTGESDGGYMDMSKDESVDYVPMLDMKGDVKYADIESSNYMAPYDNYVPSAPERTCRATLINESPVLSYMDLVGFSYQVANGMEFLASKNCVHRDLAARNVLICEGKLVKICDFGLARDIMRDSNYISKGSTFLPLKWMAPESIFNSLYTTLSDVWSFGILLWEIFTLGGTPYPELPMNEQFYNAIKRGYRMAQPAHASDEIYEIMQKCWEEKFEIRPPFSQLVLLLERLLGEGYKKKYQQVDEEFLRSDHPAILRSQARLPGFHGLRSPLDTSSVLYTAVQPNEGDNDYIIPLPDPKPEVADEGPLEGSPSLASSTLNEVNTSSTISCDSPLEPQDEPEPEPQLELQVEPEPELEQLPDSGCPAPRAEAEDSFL
T1 sequence (P16234 550-1089 T674I): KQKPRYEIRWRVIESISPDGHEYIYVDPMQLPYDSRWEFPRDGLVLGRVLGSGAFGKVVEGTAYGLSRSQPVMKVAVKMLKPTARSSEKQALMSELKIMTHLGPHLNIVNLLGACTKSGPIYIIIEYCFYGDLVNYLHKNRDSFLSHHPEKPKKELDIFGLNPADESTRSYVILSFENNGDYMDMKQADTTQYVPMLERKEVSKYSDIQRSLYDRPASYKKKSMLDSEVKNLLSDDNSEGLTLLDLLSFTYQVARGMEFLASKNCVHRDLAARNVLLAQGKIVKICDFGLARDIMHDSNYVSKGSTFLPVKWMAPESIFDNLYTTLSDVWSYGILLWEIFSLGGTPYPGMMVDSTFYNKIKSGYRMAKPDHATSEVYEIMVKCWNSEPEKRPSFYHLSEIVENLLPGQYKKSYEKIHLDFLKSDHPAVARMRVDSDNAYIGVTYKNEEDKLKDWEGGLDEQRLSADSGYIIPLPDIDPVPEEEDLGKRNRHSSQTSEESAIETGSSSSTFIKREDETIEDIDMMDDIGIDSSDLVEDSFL

As to `Cc1c[nH]c2ncc(N[C@@H](C)c3cccc(NC(=O)c4cncc(C(F)F)c4)c3)nc12` [Compound 556, (S)-5-(difluoromethyl)-N-(3-(1-((7-methyl-5H-pyrrolo[2,3-6]pyrazin-2-yl)amino)ethyl)phenyl)nicotinamide], the IC50 in assay [1] and in assay [2] was below 300 nM in each case.
For the compound `Cc1c[nH]c2ncc(N[C@@H](C)c3cccc(NC(=O)c4ccc(C(F)(F)F)nc4)c3)nc12` [Compound 557, (S)-N-(3-(1-((7-methyl-5H-pyrrolo[2,3-b]pyrazin-2-yl)amino)ethyl)phenyl)-6-(trifluoromethyl)nicotinamide], the concentration for half-maximal inhibition (IC50) in assay [1] and in assay [2] was below 300 nM each time.
With `Cc1c[nH]c2ncc(N[C@@H](C)c3cccc(NC(=O)c4ccc(C5CC5)nc4)c3)nc12` [Compound 558, (S)-6-cyclopropyl-N-(3-(1-((7-methyl-5H-pyrrolo[2,3-b]pyrazin-2-yl)amino)ethyl)phenyl)nicotinamide], the IC50 in assay [1] and in assay [2] was below 300 nM in each case.
As for `Cc1cc(C(=O)Nc2cccc([C@H](C)Nc3cnc4[nH]cc(C)c4n3)c2)cnc1C(F)(F)F` [Compound 559, (S)-5-methyl-N-(3-(1-((7-methyl-5H-pyrrolo[2,3-b]pyrazin-2-yl)amino)ethyl)phenyl)-6-(trifluoromethyl) nicotinamide], the IC50 in assay [1] and in assay [2] was below 300 nM each time.
On to `Cc1c[nH]c2ncc(N[C@@H](C)c3cccc(NC(=O)c4ccc(C(F)F)s4)c3)nc12` [Compound 560, (S)-5-(difluoromethyl)-N-(3-(1-((7-methyl-5H-pyrrolo[2,3-b]pyrazin-2-yl)amino)ethyl)phenyl)thiophene-2-carboxamide], for which the IC50 in assay [1] and in assay [2] was below 300 nM in each case.
Take `Cc1c[nH]c2ncc(N[C@@H](C)c3cccc(NC(=O)c4cnn(C(F)F)c4)c3)nc12` [Compound 561, (S)-1-(difluoromethyl)-N-(3-(1-((7-methyl-5H-pyrrolo[2,3-b]pyrazin-2-yl)amino)ethyl)phenyl)-1H-pyrazole-4-carboxamide]: the IC50 in assay [1] and in assay [2] was below 300 nM each time.
For `Cc1c[nH]c2ncc(N[C@@H](C)c3cccc(NC(=O)c4cc(C(F)(F)F)nn4C)c3)nc12` [Compound 562, (S)-1-methyl-N-(3-(1-((7-methyl-5H-pyrrolo[2,3-b]pyrazin-2-yl)amino)ethyl)phenyl)-3-(trifluoromethyl)-1H-pyrazole-5-carboxamide], the IC50 (commonly the concentration needed to halve the response being measured) in assay [1] is below 300 nM; in assay [2] it was 300 to 1000 nM.
In the case of `Cc1cncc(C(=O)Nc2cccc([C@H](C)Nc3cnc4[nH]cc(-c5cnn(C)c5)c4n3)c2)c1` [Compound 563, (S)-5-methyl-N-(3-(1-((7-(1-methyl-H-pyrazol-4-yl)-5H-pyrrolo[2,3-b]pyrazin-2-yl)amino)ethyl)phenyl) nicotinamide], the 50% inhibitory concentration (IC50) in assay [1] and in assay [2] was below 300 nM in each case.
Turning to `CCc1c[nH]c2ncc(N[C@@H](C)c3cccc(NC(=O)c4cncc(C)c4)c3)nc12` [Compound 564, (S)-N-(3-(1-((7-ethyl-5H-pyrrolo[2,3-b]pyrazin-2-yl)amino)ethyl)phenyl)-5-methylnicotinamide], the IC50 in assay [1] and in assay [2] was below 300 nM throughout.
In the case of `Cc1c[nH]c2ncc(N[C@@H](C)c3cccc(NC(=O)c4cncc(Cl)c4)c3)nc12` [Compound 565, (S)-5-chloro-N-(3-(1-((7-methyl-5H-pyrrolo[2,3-b]pyrazin-2-yl)amino)ethyl)phenyl)nicotinamide], the IC50 in assay [1] and in assay [2] was below 300 nM each time.
Consider `COc1ccc(C(=O)Nc2cccc([C@H](C)Nc3cnc4[nH]cc(-c5cnn(C)c5)c4n3)c2)cn1` [Compound 566, (S)-6-methoxy-N-(3-(1-((7-(1-methyl-1H-pyrazol-4-yl)-5H-pyrrolo[2,3-b]pyrazin-2-yl)amino)ethyl)phenyl) nicotinamide], for which the 50% inhibitory concentration (IC50) in assay [1] and in assay [2] was below 300 nM throughout.
For `Cc1c[nH]c2ncc(N[C@@H](C)c3cccc(NC(=O)c4cc(C(F)(F)F)n(C)n4)c3)nc12` [Compound 567, (S)-1-methyl-N-(3-(1-((7-methyl-5H-pyrrolo[2,3-b]pyrazin-2-yl)amino)ethyl)phenyl)-5-(trifluoromethyl)-1H-pyrazole-3-carboxamide], the figures for the IC50 in assay [1] and in assay [2] were below 300 nM and 300 to 1000 nM, respectively.
The corresponding values for `Cc1c[nH]c2ncc(N[C@@H](C)c3cccc(NC(=O)c4ccc(OC(F)(F)F)nc4)c3)nc12` [Compound 568, (S)-N-(3-(1-((7-methyl-5H-pyrrolo[2,3-b]pyrazin-2-yl)amino)ethyl)phenyl)-6-(trifluoromethoxy)nicotinamide] are 300 to 1000 nM and at least 1000 nM.
Consider `Cc1cncc(C(=O)Nc2cccc([C@H](C)Nc3cnc4[nH]cc(C5CC5)c4n3)c2)c1` [Compound 569, (S)-N-(3-(1-((7-cyclopropyl-5H-pyrrolo[2,3-b]pyrazin-2-yl)amino)ethyl)phenyl)-5-methylnicotinamide], for which the IC50 was 300 to 1000 nM in assay [1] and below 300 nM in assay [2].
Take `CCOc1ccc(C(=O)Nc2cccc([C@H](C)Nc3cnc4[nH]cc(C)c4n3)c2)cn1` [Compound 570, (S)-6-ethoxy-N-(3-(1-((7-methyl-5H-pyrrolo[2,3-b]pyrazin-2-yl)amino)ethyl)phenyl)nicotinamide]: the concentration for half-maximal inhibition (IC50) in assay [1] and in assay [2] was below 300 nM in each case.
In the case of `Cc1c[nH]c2ncc(N[C@@H](C)c3cccc(NC(=O)c4cnc(C5CC5)s4)c3)nc12` [Compound 571, (S)-2-cyclopropyl-N-(3-(1-((7-methyl-5H-pyrrolo[2,3-b]pyrazin-2-yl)amino)ethyl)phenyl)thiazole-5-carboxamide], the IC50 in assay [1] and in assay [2] was below 300 nM in each case.
Regarding `Cc1c[nH]c2ncc(N[C@@H](C)c3cccc(NC(=O)c4cnc(C(F)(F)F)s4)c3)nc12` [Compound 572, (S)-N-(3-(1-((7-methyl-5H-pyrrolo[2,3-b]pyrazin-2-yl)amino)ethyl)phenyl)-2-(trifluoromethyl)thiazole-5-carboxamide], the IC50 was at least 1000 nM in assay [1] and 300 to 1000 nM in assay [2].
Consider `Cc1c[nH]c2ncc(N[C@@H](C)c3cccc(NC(=O)c4cnn(C5CC5)c4)c3)nc12` [Compound 573, (s)-1-cyclopropyl-N-(3-(1-((7-methyl-5H-pyrrolo[2,3-b]pyrazin-2-yl)amino)ethyl)phenyl)-1H-pyrazole-4-carboxamide], for which the concentration for half-maximal inhibition (IC50) in assay [1] and in assay [2] was below 300 nM each time.
Take `CCn1cc(C(=O)Nc2cccc([C@H](C)Nc3cnc4[nH]cc(C)c4n3)c2)cn1` [Compound 574, (S)-1-ethyl-N-(3-(1-((7-methyl-5H-pyrrolo[2,3-b]pyrazin-2-yl)amino)ethyl)phenyl)-1H-pyrazole-4-carboxamide]: the IC50 in assay [1] and in assay [2] was below 300 nM throughout.
On to `Cc1c[nH]c2ncc(N[C@@H](C)c3cccc(NC(=O)c4cnn(CCF)c4)c3)nc12` [Compound 575, (S)-1-(2-fluoroethyl)-N-(3-(1-((7-methyl-5H-pyrrolo[2,3-b]pyrazin-2-yl)amino)ethyl)phenyl)-1H-pyrazole-4-carboxamide], for which the IC50 in assay [1] and in assay [2] was below 300 nM throughout.
Turning to `Cc1cc(C(=O)Nc2cccc([C@H](C)Nc3cnc4[nH]cc(-c5cnn(C)c5)c4n3)c2)cnc1C(F)(F)F` [Compound 576, (S)-5-methyl-N-(3-(1-((7-(1-methyl-1H-pyrazol-4-yl)-5H-pyrrolo[2,3-b]pyrazin-2-yl)amino)ethyl)phenyl)-6-(trifluoromethyl)nicotinamide], the IC50 in assay [1] and in assay [2] was below 300 nM each time.
For `Cc1cc(C(=O)Nc2cccc([C@H](C)Nc3cnc4[nH]cc(-c5cnn(C)c5)c4n3)c2)cnc1N1CCCC1` [Compound 577, (S)-5-methyl-N-(3-(1-((7-(1-methyl-1H-pyrazol-4-yl)-5H-pyrrolo[2,3-b]pyrazin-2-yl)amino)ethyl)phenyl)-6-(pyrrolidin-1-yl)nicotinamide], the half-maximal inhibitory concentration (IC50) in assay [1] and in assay [2] was below 300 nM in each case.
As for `C[C@H](Nc1cnc2[nH]cc(-c3cnn(C)c3)c2n1)c1cccc(NC(=O)c2cnc(C3CC3)s2)c1` [Compound 578, (S)-2-cyclopropyl-N-(3-(1-((7-(1-methyl-1H-pyrazol-4-yl)-5H-pyrrolo[2,3-b]pyrazin-2-yl)amino)ethyl)phenyl)thiazole-5-carboxamide], the IC50 in assay [1] and in assay [2] was below 300 nM throughout.
For the compound `COc1ncc(C(=O)Nc2cccc([C@H](C)Nc3cnc4[nH]cc(-c5cnn(C)c5)c4n3)c2)cc1C` [Compound 579, (S)-6-methoxy-5-methyl-N-(3-(1-((7-(1-methyl-1H-pyrazol-4-yl)-5H-pyrrolo[2,3-b]pyrazin-2-yl)amino)ethyl)phenyl) nicotinamide], the IC50 in assay [1] and in assay [2] was below 300 nM each time.
As to `C[C@H](Nc1cnc2[nH]cc(-c3cnn(C)c3)c2n1)c1cccc(NC(=O)c2ccc(C(F)(F)F)nc2)c1` [Compound 580, (S)-N-(3-(1-((7-(1-methyl-1H-pyrazol-4-yl)-5H-pyrrolo[2,3-b]pyrazin-2-yl)amino)ethyl)phenyl)-6-(trifluoromethyl) nicotinamide], the figures for the IC50 in assay [1] and in assay [2] were 300 to 1000 nM and below 300 nM, respectively.
Take `C[C@H](Nc1cnc2[nH]cc(-c3cnn(C)c3)c2n1)c1cccc(NC(=O)c2cnn(C3CC3)c2)c1` [Compound 581, (S)-1-cyclopropyl-N-(3-(1-((7-(1-methyl-1H-pyrazol-4-yl)-5H-pyrrolo[2,3-b]pyrazin-2-yl)amino)ethyl)phenyl)-1H-pyrazole-4-carboxamide]: the IC50 in assay [1] and in assay [2] was below 300 nM each time.
In the case of `C[C@H](Nc1cnc2[nH]cc(-c3cnn(C)c3)c2n1)c1cccc(NC(=O)c2cnc(C(F)(F)F)s2)c1` [Compound 582, (S)-N-(3-(1-((7-(1-methyl-1H-pyrazol-4-yl)-5H-pyrrolo[2,3-b]pyrazin-2-yl)amino)ethyl)phenyl)-2-(trifluoromethyl) thiazole-5-carboxamide], the IC50 in assay [1] and in assay [2] was 300 to 1000 nM each time.
